Data reported in US20090131354A1, “miR-126 REGULATED GENES AND PATHWAYS AS TARGETS FOR THERAPEUTIC INTERVENTION” (priority 2007, published 2009).

Legend:
[1] = tested on: human H460 lung cancer xenografts; assay: H460 lung cancer xenograft, cells electroporated before implantation; type: in vivo, NOD/SCID mice; details: H460, day 7
Experimental: The inventors assessed the growth-inhibitory activity of hsa-miR-126 in human lung cancer xenografts grown in immunodeficient mice. Hsa-miR-126 was delivered into A549 and H460 lung cancer cells via electroporation using the Gene Pulser Xcell™ (BioRad) with the following settings: 15×10^6 cells with 5 μg miRNA in 200 μl OptiMEM, square wave pulse at 150 V for 10 ms. Electroporated cells (5×10^6) were mixed with BD Matrigel™, (BD Biosciences; San Jose, Calif., USA; cat. no. 356237) in a 1:1 ratio and injected subcutaneously into the flank of NOD/SCID mice (Charles River Laboratories, Inc.; Wilmington, Mass., USA). As a negative control, A549 and H460 cells were electroporated with negative control (NC) miRNA (Pre-miR™ microRNA Precursor Molecule-Negative Control #2; Ambion cat. no. AM17111) as described above. To assess the anti-oncogenic activity of hsa-miR-126, six animals were injected with A459 cells and six animals were injected with H460 cells. NC miRNA-treated cells were injected into the opposite flank of the same animal to control for animal-to-animal variability. Once tumors reached a measurable size (A549 at 7 days post injection; H460 at 5 days post injection), the length and width of tumors were determined every day for up to 11 days. Tumor volumes were calculated using the formula, Volume=length X width X width/2, in which the length is greater than the width. […]

[2] = tested on: PC3 prostate cancer cells; assay: Long-term growth curve with repeated electroporation, PC3; type: cell-based, human
Description: To evaluate the therapeutic activity of hsa-miR-126 over an extended period of time, we conducted growth curve experiments in the presence of miRNA for up to 21 days. Since in vitro transfections of naked interfering RNAs, such as synthetic miRNA, are transient by nature and compromised by the dilution of the oligonucleotide during ongoing cell divisions, we administered miRNA at multiple time points (Bartlett and Davis, 2006; Bartlett and Davis, 2007). To accommodate miRNA delivery into a large quantity of cells, we employed the electroporation method to delivery hsa-miR-126 or negative control miRNA into PPC-1, PC3 and Du145 human prostate cancer cells. Briefly, 1×10^6 PPC-1 or PC3 cells, and 0.5×10^6 Du145 cells were electroporated with 1.6 μM hsa-miR-126 or negative control using the BioRad Gene Pulser Xcell™ instrument (BioRad Laboratories Inc., Hercules, Calif., USA), seeded and propagated in regular growth medium. Experiments with PC3 and Du145 cells were carried out in triplicates. When the control cells reached confluence (days 4 and 11 for PPC-1; days 7 and 14 for PC3 and Du145), cells were harvested, counted and electroporated again with the respective miRNAs. […] The population doubling was calculated from these electroporation events using the formula PD=ln(Nf/N0)/ln2, and cell counts were extrapolated and plotted on a linear scale (FIGS. 10-12). […]

[3] = tested on: MCF12A, BT549, TE353SK, 22Rv1, A549, CRL-5826, HTB-57 cells; details: cited from earlier work
A549 lung cancer cells = assay: Dose-dependent inhibition of proliferation (Alamar Blue), A549; type: cell-based, human; details: for % proliferation: normalized to mock-transfected cells (0 pM = 100%)
Experimental: Lipid-based reverse transfections were carried out in triplicate according to a published protocol (Ovcharenko et al., 2005) and the following parameters: Cells (5,000-12,000 per 96 well), 0.1-0.2 μl Lipofectamine™ 2000 (cat. no. 11668-019, Invitrogen Corp., Carlsbad, Calif., USA) in 20 μl OptiMEM (Invitrogen), 30 nM final concentration of miRNA in 100 μl. Electroporation of H226 cells was carried out using the BioRad Gene Pulser Xcell™ instrument (BioRad Laboratories Inc., Hercules, Calif., USA) with the following settings: 5×10^6 cells with 5 μg miRNA in 200 μl OptiMEM (1.6 μM miRNA), square wave pulse at 250 V for 5 ms. Electroporated H226 cells were seeded at 7,000 cells per 96-well in a total volume of 100 μl. All cells except for Calu-3 cells were harvested 72 hours post transfection or electroporation for assessment of cellular proliferation. Calu-3 cells were harvested 10 days post transfection. Proliferation assays were performed using Alamar Blue (Invitrogen) following the manufacturer's instructions. As a control for inhibition of cellular proliferation, siRNA against the motor protein kinesin 11, also known as Eg5, was used. Eg5 is essential for cellular survival of most eukaryotic cells and a lack thereof leads to reduced cell proliferation and cell death (Weil et al., 2002). siEg5 was used in lipid-based transfection following the same experimental parameters that apply to miRNA. The inventors also used a DNA topoisomerase II inhibitor, etoposide, at a final concentration of 10 μM and 50 μM as an internal standard for the potency of miRNAs. Etoposide is an FDA-approved DNA topoisomerase II inhibitor in the treatment of lung cancer. […] Percent (%) proliferation values from the Alamar Blue assay were normalized to values from cells treated with negative control miRNA. Percent proliferation of hsa-miR-126 treated cells relative to cells treated with negative control miRNA (100%) is shown in Table 6 and in FIG. 1.
The inventors determined sensitivity and specificity of hsa-miR-126 by administering hsa-miR-126 or negative control miRNA at increasing concentrations, ranging from 0 pM to 3,000 pM (Table 7, FIG. 2). Delivery of miRNA and assessment of cellular proliferation of A549 and H460 cells were done as described above. Proliferation values from the Alamar Blue assay were normalized to values obtained from mock-transfected cells (0 pM=100% proliferation). Increasing amounts of negative control miRNA (NC) had no effect on cellular proliferation of A549 or H460 cells (Table 7 and FIG. 2). In contrast, the growth-inhibitory phenotype of hsa-miR-126 is dose-dependent and correlates with increasing amounts of hsa-miR-126 (Table 7 and FIG. 2). Hsa-miR-126 induces a specific therapeutic response at concentrations as low as 300 pM.

[4] = tested on: human leukemia cells (Jurkat) and normal human T cells; details: cited from earlier work

## hsa-miR-126 (UCGUACCGUGAGUAAUAAUGC; synthetic pre-miR form, further chemistry not given here) [Synthetic hsa-miR-126 (Pre-miR™-hsa-miR-126, Ambion cat. no. AM17100)]
[1]
  tumor size relative to control tumors: smaller in size
[2]; PC3, day 21, 1.6 μM repeated electroporation, relative to control cells (100%)
  inhibition of cell growth: 90.7%
[2]; PC3, day 21, relative to control cells (100%)
  remaining cells: 9.3%
[3]
  effect on proliferation: decreasing proliferation
A549 lung cancer cells; A549 and H460, 0 pM to 3,000 pM
  growth-inhibitory phenotype, dose dependence: dose-dependent
A549 lung cancer cells; A549 and H460, 0 pM to 3,000 pM tested
  concentration inducing a specific therapeutic response: ≥ 300 pM
A549 lung cancer cells; A549 cells, 3 pM miRNA
  % proliferation: 95.40%
A549 lung cancer cells; A549 cells, 30 pM miRNA
  % proliferation: 92.87%
A549 lung cancer cells; A549 cells, 300 pM miRNA
  % proliferation: 80.93%
A549 lung cancer cells; A549 cells, 3,000 pM miRNA
  % proliferation: 74.50%
[4]
  effect on proliferation: increasing the proliferation
